For four compounds, remaining activity results are on record in PMC5564600 (Oncotarget, 2017).

Common to all, as to test: biochemical
Common to all, as to format: binding

Experiment [1] addresses T1, panel of 442 kinases (Homo sapiens, UniProt O43283).
T1 construct: purchased Ambit Biosciences (scanMAXX KINOMEscan)
T1 sequence (O43283 1-966): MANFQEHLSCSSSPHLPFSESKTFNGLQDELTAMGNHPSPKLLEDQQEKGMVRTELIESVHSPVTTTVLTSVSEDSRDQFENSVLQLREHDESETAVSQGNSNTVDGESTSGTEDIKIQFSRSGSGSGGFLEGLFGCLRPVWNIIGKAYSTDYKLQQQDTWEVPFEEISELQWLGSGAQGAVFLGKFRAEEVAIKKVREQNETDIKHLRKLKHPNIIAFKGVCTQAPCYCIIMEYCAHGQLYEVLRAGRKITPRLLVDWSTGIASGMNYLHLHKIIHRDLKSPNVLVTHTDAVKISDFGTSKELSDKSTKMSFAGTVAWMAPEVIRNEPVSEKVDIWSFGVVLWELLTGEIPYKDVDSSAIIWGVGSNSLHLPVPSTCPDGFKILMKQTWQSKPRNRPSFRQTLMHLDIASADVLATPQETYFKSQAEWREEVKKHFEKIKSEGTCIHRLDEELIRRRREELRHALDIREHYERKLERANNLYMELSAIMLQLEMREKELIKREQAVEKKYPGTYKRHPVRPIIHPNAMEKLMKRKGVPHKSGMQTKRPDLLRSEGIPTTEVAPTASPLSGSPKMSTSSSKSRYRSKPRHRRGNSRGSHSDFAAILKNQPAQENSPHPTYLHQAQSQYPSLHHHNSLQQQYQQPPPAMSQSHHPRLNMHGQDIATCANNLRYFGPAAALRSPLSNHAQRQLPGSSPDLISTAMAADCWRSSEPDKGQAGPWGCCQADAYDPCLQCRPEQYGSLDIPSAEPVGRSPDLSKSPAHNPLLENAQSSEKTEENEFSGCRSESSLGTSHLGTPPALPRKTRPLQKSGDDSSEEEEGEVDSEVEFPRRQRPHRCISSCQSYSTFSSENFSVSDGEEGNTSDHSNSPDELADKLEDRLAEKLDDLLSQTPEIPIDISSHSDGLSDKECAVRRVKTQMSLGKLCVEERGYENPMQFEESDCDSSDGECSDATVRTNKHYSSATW
Particulars: kinase LZK; for remaining activity at 1 µM: read-out: % of control at 1 µM.

Experiment [2] has as its target T2, panel of 442 kinases (Homo sapiens, UniProt P07949, V804L).
T2 construct: purchased Ambit Biosciences (scanMAXX KINOMEscan)
The following applies: kinase RET(V804L); for remaining activity at 1 µM: read-out: RET(V804L) (% of control at 1 µM).

The target in experiment [3] is T3, panel of 442 kinases (Homo sapiens, UniProt P07949, V804M).
T3 construct: purchased Ambit Biosciences (scanMAXX KINOMEscan)
T3 sequence (P07949 29-1114 V804M): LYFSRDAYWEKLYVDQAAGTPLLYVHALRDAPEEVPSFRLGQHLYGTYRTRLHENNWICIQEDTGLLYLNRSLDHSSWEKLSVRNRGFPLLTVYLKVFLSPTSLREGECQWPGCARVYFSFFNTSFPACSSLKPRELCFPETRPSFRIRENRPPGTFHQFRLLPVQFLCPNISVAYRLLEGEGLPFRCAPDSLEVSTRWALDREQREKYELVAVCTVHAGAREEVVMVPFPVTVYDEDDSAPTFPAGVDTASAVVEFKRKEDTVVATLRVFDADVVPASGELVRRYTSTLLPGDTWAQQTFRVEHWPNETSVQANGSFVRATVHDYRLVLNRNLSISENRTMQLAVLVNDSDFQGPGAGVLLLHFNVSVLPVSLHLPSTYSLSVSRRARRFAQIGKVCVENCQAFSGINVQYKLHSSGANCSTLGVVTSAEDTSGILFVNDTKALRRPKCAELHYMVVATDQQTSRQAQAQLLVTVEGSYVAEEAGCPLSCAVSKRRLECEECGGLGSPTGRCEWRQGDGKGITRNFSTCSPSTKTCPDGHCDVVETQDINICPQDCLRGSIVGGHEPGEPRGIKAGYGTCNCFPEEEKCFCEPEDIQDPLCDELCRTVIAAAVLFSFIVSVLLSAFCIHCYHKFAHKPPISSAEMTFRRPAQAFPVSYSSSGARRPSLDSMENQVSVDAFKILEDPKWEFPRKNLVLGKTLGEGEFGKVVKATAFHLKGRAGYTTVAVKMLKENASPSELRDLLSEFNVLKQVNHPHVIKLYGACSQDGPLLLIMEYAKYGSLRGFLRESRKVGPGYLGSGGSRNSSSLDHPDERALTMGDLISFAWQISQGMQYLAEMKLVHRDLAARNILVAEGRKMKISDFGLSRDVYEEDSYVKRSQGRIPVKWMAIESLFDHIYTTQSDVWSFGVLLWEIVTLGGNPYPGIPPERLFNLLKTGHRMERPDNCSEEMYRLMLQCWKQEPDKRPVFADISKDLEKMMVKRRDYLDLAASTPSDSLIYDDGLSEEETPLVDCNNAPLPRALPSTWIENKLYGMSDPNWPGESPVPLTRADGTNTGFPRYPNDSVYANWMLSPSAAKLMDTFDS
Particulars: kinase RET(V804M); for remaining activity at 1 µM: read-out: RET(V804M) (% of control at 1 µM).

Experiment [4] has as its target T4, panel of 442 kinases (Homo sapiens, UniProt P36888, D835H).
T4 construct: purchased Ambit Biosciences (scanMAXX KINOMEscan)
T4 sequence (P36888 27-993 D835H): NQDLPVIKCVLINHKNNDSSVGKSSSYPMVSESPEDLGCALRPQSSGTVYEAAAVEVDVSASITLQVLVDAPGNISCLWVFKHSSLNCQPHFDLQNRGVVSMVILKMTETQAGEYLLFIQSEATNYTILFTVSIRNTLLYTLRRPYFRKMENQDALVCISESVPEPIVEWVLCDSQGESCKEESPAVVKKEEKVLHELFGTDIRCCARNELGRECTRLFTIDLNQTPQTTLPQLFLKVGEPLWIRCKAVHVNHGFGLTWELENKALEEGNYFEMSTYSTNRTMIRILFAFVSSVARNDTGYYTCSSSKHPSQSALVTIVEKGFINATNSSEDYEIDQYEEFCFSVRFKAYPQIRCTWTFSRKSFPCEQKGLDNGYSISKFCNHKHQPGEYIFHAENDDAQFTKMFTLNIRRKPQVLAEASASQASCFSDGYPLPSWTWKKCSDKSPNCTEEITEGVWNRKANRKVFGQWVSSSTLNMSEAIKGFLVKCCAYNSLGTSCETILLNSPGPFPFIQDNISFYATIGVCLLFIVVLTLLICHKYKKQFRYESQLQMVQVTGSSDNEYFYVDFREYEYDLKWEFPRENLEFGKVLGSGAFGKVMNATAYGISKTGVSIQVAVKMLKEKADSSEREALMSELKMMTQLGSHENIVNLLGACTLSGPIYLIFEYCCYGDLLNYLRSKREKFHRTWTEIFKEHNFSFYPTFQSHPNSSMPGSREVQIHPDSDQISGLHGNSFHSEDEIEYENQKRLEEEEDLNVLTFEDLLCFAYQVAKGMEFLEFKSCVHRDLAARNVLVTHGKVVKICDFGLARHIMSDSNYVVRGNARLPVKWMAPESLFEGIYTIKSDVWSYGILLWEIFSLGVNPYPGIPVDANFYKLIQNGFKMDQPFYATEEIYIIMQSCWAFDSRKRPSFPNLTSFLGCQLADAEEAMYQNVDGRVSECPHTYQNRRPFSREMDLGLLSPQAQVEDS
Particulars: FLT3(D835H); for remaining activity at 1 µM: read-out: % of control at 1 µM.

The target of experiment [5] is T5, panel of 442 kinases (Homo sapiens, UniProt P53671).
T5 construct: purchased Ambit Biosciences (scanMAXX KINOMEscan)
T5 sequence (P53671 whole entry): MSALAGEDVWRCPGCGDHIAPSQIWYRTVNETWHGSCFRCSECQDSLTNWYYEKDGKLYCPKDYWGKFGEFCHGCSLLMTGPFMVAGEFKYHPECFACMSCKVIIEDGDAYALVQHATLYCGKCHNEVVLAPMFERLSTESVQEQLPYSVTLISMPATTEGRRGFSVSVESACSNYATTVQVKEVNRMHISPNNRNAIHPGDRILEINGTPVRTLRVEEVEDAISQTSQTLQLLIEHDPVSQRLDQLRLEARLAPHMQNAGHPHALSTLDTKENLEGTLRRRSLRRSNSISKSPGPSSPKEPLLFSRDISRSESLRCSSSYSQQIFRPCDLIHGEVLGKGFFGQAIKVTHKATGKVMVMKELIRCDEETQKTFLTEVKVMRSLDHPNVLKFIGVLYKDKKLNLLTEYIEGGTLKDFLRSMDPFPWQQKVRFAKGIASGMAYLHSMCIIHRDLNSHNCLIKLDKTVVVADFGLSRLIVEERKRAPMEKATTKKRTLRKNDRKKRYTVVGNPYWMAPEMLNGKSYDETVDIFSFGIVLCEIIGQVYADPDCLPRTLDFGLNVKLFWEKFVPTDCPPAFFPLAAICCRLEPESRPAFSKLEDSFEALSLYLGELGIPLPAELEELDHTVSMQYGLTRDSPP
The following applies: kinase LIMK2; for remaining activity at 1 µM: read-out: % of control at 1 µM.

Experiment [6] addresses T6, panel of 442 kinases (Homo sapiens, UniProt Q9NYL2).
T6 construct: purchased Ambit Biosciences (scanMAXX KINOMEscan)
Particulars: kinase ZAK; for remaining activity at 1 µM: read-out: ZAK (% of control at 1 µM).

[7] abbreviates: 10 µM, read-out: % of control at 10 µM.

T6 sequence (Q9NYL2 whole entry): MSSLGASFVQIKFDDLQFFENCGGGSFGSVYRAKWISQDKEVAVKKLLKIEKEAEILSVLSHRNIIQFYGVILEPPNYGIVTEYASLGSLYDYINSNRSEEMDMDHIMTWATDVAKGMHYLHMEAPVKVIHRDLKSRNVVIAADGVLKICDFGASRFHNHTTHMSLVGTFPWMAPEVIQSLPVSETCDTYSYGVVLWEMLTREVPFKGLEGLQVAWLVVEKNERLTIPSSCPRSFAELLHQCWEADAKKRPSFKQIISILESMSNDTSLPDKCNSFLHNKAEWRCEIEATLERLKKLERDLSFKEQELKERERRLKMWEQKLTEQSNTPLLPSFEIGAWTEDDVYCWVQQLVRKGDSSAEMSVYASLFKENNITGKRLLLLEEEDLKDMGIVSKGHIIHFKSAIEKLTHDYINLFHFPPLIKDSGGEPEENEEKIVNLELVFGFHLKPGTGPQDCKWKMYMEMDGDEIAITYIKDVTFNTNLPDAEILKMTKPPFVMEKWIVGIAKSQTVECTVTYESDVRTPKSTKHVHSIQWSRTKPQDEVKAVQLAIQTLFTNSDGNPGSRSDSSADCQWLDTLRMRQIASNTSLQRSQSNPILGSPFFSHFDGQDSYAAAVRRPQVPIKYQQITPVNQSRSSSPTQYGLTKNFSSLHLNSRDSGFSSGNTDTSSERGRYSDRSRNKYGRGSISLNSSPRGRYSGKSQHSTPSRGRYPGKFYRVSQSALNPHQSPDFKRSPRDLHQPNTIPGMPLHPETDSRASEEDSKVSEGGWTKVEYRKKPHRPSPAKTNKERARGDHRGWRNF
T2 sequence (P07949 29-1114 V804L): as the sequence (P07949 29-1114 V804M) above, with M776L counted along it

For `Nc1cc(C(F)(F)F)c(-c2cc(N3CCOCC3)nc(N3CCOCC3)n2)cn1` [Buparlisib], the remaining activity at 1 µM in experiment [1] is 81%; in experiment [2] it was 100%; in experiment [3], 97%; in experiment [4] it was 89%; in experiment [5], 100%; in experiment [6], 85%. Besides, the remaining activity at 10 µM in experiment [1] (setting [7]) was found to be 98%; in experiment [2] (10 µM, read-out: RET(V804L) (% of control at 10 µM)), 100%; in experiment [3] (10 µM, read-out: RET(V804M) (% of control at 10 µM)), 100%; in experiment [4] (setting [7]), 76%; in experiment [5] (setting [7]), 100%; in experiment [6] (10 µM, read-out: ZAK (% of control at 10 µM)) it was 90%.
`Cn1c(=O)n(-c2ccc(C(C)(C)C#N)cc2)c2c3cc(-c4cnc5ccccc5c4)ccc3ncc21` [Dactolisib, 2-methyl-2-[4-(3-methyl-2-oxo-8-quinolin-3-yl-2,3-dihydroimidazo[4,5-c]quinolin-1-yl)-phenyl] propionitrile]: the remaining activity at 1 µM was 100% in experiment [1]; 99% in experiment [2]; 26% in experiment [4]; 91% in experiment [5]; 55% in experiment [6].
As to `FC(F)c1nc2ccccc2n1-c1nc(N2CCOCC2)nc(N2CCOCC2)n1` [ZSTK474, 2-(difluoromethyl)-1-[4,6-di(4-morpholinyl)-1,3,5-triazin-2-yl]-1H-benzimidazole], the remaining activity at 1 µM in experiment [1] worked out at 100%; in experiment [2], 93%; in experiment [3] it was 100%; in experiment [4] it was 100%; in experiment [5], 100%; in experiment [6], 92%.
With `COc1ncc(-c2ccc3nccc(-c4ccnnc4)c3c2)cc1NS(=O)(=O)c1ccc(F)cc1F` [Omipalisib], the remaining activity at 1 µM in experiment [1] is 100%; in experiment [2], 99%; in experiment [3] it was 90%; in experiment [4] it was 100%; in experiment [5] it was 89%; in experiment [6], 81%.
